pIC50, pKd: −log10 of the molar value.
Target: RAC-alpha serine/threonine-protein kinase (Homo sapiens) (UniProt P31749)
Sequence (P31749 whole entry): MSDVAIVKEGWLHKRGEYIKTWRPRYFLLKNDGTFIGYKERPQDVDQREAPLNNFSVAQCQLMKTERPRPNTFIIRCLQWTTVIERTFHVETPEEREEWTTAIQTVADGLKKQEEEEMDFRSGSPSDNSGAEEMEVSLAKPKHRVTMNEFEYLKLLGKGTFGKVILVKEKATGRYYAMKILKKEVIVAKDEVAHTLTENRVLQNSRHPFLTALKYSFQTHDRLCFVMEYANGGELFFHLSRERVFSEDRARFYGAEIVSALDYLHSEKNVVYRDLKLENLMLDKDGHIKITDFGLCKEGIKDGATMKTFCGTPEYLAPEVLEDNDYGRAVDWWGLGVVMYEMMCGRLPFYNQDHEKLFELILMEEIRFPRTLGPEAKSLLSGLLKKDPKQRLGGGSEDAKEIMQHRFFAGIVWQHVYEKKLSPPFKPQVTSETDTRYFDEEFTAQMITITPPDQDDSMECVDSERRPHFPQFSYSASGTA
Experiment: Inhibition of AKT1 (unknown origin) at 1 uM relative to control
Conditions: not given
Work on `C/C=C/Cn1cc(-c2cc(OC)c(C(=O)N3CCOCC3)cc2OC)c2cc(C)[nH]c2c1=O` yielded an inhibition of 1.5%.

Target: T1, Bromodomain-containing protein 4 (Homo sapiens, UniProt O60885)
Experiment: Binding affinity to human partial length BRD4 bromodomain 1 long isoform (N44 to E168 residues) expressed in bacterial expression system by BROMOscan assay
Conditions: not given
Work on `C/C=C/Cn1cc(-c2cc(OC)c(C(=O)N3CCOCC3)cc2OC)c2cc(C)[nH]c2c1=O` yielded a pKd of under 5.00.

Target: Bromodomain adjacent to zinc finger domain protein 2B (Homo sapiens, UniProt Q9UIF8)
Sequence (Q9UIF8 whole entry, the tested form may be a part): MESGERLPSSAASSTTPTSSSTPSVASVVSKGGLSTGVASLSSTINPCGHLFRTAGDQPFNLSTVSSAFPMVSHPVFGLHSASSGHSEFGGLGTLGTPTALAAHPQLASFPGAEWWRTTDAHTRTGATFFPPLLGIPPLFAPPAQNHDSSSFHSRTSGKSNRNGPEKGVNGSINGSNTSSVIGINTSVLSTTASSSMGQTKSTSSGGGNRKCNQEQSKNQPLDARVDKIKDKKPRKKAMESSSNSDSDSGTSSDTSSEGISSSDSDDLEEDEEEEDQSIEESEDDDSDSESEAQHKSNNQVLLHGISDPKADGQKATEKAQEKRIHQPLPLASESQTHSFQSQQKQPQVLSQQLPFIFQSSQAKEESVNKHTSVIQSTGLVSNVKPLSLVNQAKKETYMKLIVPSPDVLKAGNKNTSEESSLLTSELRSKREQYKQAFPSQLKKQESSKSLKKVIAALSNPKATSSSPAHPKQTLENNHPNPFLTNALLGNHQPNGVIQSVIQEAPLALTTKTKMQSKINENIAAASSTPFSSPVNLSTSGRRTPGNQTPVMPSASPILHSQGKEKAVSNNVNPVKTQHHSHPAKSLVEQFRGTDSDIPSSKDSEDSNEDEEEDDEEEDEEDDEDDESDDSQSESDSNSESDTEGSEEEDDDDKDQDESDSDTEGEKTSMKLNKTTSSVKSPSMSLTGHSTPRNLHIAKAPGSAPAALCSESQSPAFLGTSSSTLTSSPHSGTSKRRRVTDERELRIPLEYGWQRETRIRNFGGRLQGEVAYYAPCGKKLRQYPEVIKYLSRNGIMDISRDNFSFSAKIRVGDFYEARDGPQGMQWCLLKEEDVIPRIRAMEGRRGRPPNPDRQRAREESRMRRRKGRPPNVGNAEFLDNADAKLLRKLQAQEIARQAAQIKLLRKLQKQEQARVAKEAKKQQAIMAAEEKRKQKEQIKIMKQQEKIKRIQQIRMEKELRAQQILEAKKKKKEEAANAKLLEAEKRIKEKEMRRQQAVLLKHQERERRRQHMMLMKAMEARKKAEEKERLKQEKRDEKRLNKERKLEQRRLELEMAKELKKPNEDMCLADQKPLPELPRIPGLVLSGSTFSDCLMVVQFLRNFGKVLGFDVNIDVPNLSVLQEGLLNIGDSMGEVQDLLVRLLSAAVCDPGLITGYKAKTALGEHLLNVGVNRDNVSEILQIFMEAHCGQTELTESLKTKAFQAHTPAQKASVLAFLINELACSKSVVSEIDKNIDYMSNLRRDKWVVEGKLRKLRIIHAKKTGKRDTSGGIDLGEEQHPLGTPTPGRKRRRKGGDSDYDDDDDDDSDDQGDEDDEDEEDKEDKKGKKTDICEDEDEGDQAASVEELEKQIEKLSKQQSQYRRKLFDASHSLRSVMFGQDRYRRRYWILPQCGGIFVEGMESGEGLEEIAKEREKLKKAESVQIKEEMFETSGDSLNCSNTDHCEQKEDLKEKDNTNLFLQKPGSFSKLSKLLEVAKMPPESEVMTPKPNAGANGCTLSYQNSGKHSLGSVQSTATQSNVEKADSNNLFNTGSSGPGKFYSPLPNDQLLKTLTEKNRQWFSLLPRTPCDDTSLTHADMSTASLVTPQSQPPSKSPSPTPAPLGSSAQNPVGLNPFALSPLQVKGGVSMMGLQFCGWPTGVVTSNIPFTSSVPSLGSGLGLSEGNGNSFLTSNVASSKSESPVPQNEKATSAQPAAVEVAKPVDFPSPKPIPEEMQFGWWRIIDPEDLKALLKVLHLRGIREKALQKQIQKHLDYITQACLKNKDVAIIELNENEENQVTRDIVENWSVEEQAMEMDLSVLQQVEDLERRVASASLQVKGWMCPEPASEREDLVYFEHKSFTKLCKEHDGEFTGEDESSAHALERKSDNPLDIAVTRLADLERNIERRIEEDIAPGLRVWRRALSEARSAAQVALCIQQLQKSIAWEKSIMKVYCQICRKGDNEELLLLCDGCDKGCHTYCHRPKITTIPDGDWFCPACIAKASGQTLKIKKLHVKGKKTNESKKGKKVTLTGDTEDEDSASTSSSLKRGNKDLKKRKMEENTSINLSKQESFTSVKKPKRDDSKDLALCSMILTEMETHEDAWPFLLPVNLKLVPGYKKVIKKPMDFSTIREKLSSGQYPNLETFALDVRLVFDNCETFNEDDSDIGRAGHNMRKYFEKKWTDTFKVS
Experiment: Binding affinity to human partial length BAZ2B (S2054 to S2168 residues) expressed in bacterial expression system by BROMOscan assay
Conditions: not given
For `C/C=C/Cn1cc(-c2cc(OC)c(C(=O)N3CCOCC3)cc2OC)c2cc(C)[nH]c2c1=O`, the pKd was under 5.00.

Target: Protein polybromo-1 (Homo sapiens, UniProt Q86U86)
Experiment: Binding affinity to human partial length PBRM1 bromodomain 5 (S645 to D766 residues) expressed in bacterial expression system by BROMOscan assay
Conditions: not given
Work on `C/C=C/Cn1cc(-c2cc(OC)c(C(=O)N3CCOCC3)cc2OC)c2cc(C)[nH]c2c1=O` yielded a pKd of under 5.00.

Tested on: not listed separately
Experiment: Cytotoxicity against human OCUM-1 cells measured after 8 days
Format: functional, cell-based
Conditions: OCUM1, 192 h
`C/C=C/Cn1cc(-c2cc(OC)c(C(=O)N3CCOCC3)cc2OC)c2cc(C)[nH]c2c1=O` gave a pIC50 of 5.70.

Tested on: not listed separately
Experiment: Cytotoxicity against human SW527 cells measured after 8 days
Format: functional, cell-based
Conditions: SW527, 192 h
`C/C=C/Cn1cc(-c2cc(OC)c(C(=O)N3CCOCC3)cc2OC)c2cc(C)[nH]c2c1=O` showed a pIC50 of 5.70.

Tested on: SW-620
Experiment: Cytotoxicity against human SW620 cells measured after 8 days
Format: functional, cell-based
Conditions: SW-620, 192 h
Work on `C/C=C/Cn1cc(-c2cc(OC)c(C(=O)N3CCOCC3)cc2OC)c2cc(C)[nH]c2c1=O` yielded a pIC50 of 5.70.

Tested on: Daudi
Experiment: Cytotoxicity against human Daudi cells measured after 8 days
Format: functional, cell-based
Conditions: 192 h
`C/C=C/Cn1cc(-c2cc(OC)c(C(=O)N3CCOCC3)cc2OC)c2cc(C)[nH]c2c1=O` showed a pIC50 of 5.70.

Target: T2, Bromodomain-containing protein 1 (Homo sapiens, UniProt O95696)
T2 sequence (O95696 whole entry): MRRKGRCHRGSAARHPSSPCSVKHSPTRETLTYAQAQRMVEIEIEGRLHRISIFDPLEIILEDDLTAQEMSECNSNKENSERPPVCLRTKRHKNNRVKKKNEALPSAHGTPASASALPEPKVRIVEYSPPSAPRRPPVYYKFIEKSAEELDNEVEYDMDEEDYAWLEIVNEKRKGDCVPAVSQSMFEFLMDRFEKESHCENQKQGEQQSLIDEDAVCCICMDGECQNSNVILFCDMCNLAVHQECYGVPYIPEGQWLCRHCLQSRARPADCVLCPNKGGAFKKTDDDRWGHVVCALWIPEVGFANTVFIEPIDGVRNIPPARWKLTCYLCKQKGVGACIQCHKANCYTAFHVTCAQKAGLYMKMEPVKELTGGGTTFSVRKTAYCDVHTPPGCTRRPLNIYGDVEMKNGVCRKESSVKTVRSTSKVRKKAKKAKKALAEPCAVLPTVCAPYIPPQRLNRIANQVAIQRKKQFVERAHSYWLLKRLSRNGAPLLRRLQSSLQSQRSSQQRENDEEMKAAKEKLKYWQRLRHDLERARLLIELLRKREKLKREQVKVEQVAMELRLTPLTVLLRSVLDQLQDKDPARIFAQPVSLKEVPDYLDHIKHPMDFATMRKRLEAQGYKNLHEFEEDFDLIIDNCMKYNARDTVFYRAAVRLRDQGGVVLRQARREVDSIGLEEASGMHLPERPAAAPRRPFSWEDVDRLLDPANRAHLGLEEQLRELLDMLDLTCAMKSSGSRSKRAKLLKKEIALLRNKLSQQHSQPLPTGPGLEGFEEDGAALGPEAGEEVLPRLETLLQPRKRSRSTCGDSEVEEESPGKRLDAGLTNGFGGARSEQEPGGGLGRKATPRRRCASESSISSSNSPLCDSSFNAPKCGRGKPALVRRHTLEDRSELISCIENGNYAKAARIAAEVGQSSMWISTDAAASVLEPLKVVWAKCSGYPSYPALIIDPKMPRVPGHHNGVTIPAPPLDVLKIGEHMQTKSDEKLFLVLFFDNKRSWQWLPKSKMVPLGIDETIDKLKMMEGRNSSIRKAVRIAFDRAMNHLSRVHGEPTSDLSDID
Experiment: Binding affinity to human partial length BRD1 (E556 to A688 residues) expressed in bacterial expression system by BROMOscan assay
Conditions: not given
Compound `C/C=C/Cn1cc(-c2cc(OC)c(C(=O)N3CCOCC3)cc2OC)c2cc(C)[nH]c2c1=O` has a pKd of under 5.00.

Target: Adenosine receptor A2a (Homo sapiens) (UniProt P29274)
Sequence (P29274 whole entry): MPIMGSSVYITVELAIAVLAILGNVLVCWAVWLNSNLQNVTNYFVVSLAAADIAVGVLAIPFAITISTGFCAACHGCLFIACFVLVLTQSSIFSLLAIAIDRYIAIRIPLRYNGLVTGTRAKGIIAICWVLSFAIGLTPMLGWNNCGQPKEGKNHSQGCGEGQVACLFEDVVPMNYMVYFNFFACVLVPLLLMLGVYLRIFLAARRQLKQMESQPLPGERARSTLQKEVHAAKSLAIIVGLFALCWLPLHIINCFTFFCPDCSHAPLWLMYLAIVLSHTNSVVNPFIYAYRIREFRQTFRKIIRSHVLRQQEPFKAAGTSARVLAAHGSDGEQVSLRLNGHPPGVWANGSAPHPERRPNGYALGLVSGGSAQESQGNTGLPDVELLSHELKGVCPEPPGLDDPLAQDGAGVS
Experiment: Displacement of [3H]-CGS 21680 from human recombinant adenosine A2A receptor at 10 uM after 120 mins by scintillation counting analysis relative to control
Conditions: not given
In the case of `C/C=C/Cn1cc(-c2cc(OC)c(C(=O)N3CCOCC3)cc2OC)c2cc(C)[nH]c2c1=O`, the Activity was 12%.

Target: 5-hydroxytryptamine receptor 1B (Rattus norvegicus) (UniProt P28564)
Sequence (P28564 whole entry): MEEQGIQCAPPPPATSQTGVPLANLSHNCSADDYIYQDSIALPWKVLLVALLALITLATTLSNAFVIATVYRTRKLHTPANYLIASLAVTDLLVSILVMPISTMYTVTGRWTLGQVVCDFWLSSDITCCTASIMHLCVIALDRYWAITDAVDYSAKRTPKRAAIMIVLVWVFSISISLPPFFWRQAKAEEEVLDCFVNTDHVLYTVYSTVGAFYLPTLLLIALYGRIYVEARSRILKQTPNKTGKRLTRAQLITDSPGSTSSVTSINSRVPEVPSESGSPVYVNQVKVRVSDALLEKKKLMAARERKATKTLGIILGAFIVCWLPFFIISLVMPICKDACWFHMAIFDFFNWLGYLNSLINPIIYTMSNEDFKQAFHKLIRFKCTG
Experiment: Displacement of [125I]-CYP from rat brain 5-HT1B receptor at 10 uM after 120 mins by scintillation counting analysis relative to control
Conditions: not given
`C/C=C/Cn1cc(-c2cc(OC)c(C(=O)N3CCOCC3)cc2OC)c2cc(C)[nH]c2c1=O` showed an Activity of -10%.

Target: Bromodomain testis-specific protein (Homo sapiens, UniProt Q58F21)
Experiment: Binding affinity to BRDT bromodomain 1/2 (unknown origin) by BROMOscan assay
Conditions: not given
With `C/C=C/Cn1cc(-c2cc(OC)c(C(=O)N3CCOCC3)cc2OC)c2cc(C)[nH]c2c1=O` the pKd was under 5.00.

Tested on: not listed separately
Experiment: Cytotoxicity against human NCI-H2722 cells measured after 8 days
Format: functional, cell-based
Conditions: NCI-H2722, 192 h
`C/C=C/Cn1cc(-c2cc(OC)c(C(=O)N3CCOCC3)cc2OC)c2cc(C)[nH]c2c1=O` gave a pIC50 of 5.70.

Tested on: RL
Experiment: Cytotoxicity against human RL cells measured after 8 days
Format: functional, cell-based
Conditions: 192 h
In the case of `C/C=C/Cn1cc(-c2cc(OC)c(C(=O)N3CCOCC3)cc2OC)c2cc(C)[nH]c2c1=O`, the pIC50 was 5.70.

Tested on: not listed separately
Experiment: Cytotoxicity against human KMS-27 cells measured after 8 days
Format: functional, cell-based
Conditions: KMS-27, 192 h
`C/C=C/Cn1cc(-c2cc(OC)c(C(=O)N3CCOCC3)cc2OC)c2cc(C)[nH]c2c1=O` showed a pIC50 of 5.70.

Tested on: NUGC-4
Experiment: Cytotoxicity against human NUGC-4 cells measured after 8 days
Format: functional, cell-based
Conditions: NUGC-4, 192 h
`C/C=C/Cn1cc(-c2cc(OC)c(C(=O)N3CCOCC3)cc2OC)c2cc(C)[nH]c2c1=O` gave a pIC50 of 5.70.

Tested on: OPM-2
Experiment: Cytotoxicity against human OPM-2 cells measured after 8 days
Format: functional, cell-based
Conditions: OPM-2, 192 h
`C/C=C/Cn1cc(-c2cc(OC)c(C(=O)N3CCOCC3)cc2OC)c2cc(C)[nH]c2c1=O` gave a pIC50 of 5.70.

Target: Misshapen-like kinase 1 (Homo sapiens) (UniProt Q8N4C8)
Experiment: Inhibition of Mink1 (unknown origin) at 1 uM relative to control
Conditions: not given
In the case of `C/C=C/Cn1cc(-c2cc(OC)c(C(=O)N3CCOCC3)cc2OC)c2cc(C)[nH]c2c1=O`, the inhibition was 8%.

Tested on: SK-MES-1
Experiment: Cytotoxicity against human SK-MES-1 cells measured after 8 days
Format: functional, cell-based
Conditions: SK-MES-1, 192 h
Compound `C/C=C/Cn1cc(-c2cc(OC)c(C(=O)N3CCOCC3)cc2OC)c2cc(C)[nH]c2c1=O` has a pIC50 of 5.70.

Tested on: MV4-11
Experiment: Cytotoxicity against human MV4-11 cells measured after 8 days
Format: functional, cell-based
Conditions: MV4-11, 192 h
Compound `C/C=C/Cn1cc(-c2cc(OC)c(C(=O)N3CCOCC3)cc2OC)c2cc(C)[nH]c2c1=O` has a pIC50 of 5.70.

Tested on: not listed separately
Experiment: Cytotoxicity against human OVTOKO cells measured after 8 days
Format: functional, cell-based
Conditions: 192 h
With `C/C=C/Cn1cc(-c2cc(OC)c(C(=O)N3CCOCC3)cc2OC)c2cc(C)[nH]c2c1=O` the pIC50 was 5.70.

Target: Chromatin remodeling regulator CECR2 (Homo sapiens, UniProt Q9BXF3)
Experiment: Binding affinity to human partial length CECR2 (P423 to D543 residues) expressed in bacterial expression system by BROMOscan assay
Conditions: not given
In the case of `C/C=C/Cn1cc(-c2cc(OC)c(C(=O)N3CCOCC3)cc2OC)c2cc(C)[nH]c2c1=O`, the pKd was 5.44.

Tested on: HCC4006
Experiment: Cytotoxicity against human HCC4006 cells measured after 8 days
Format: functional, cell-based
Conditions: HCC4006, 192 h
Work on `C/C=C/Cn1cc(-c2cc(OC)c(C(=O)N3CCOCC3)cc2OC)c2cc(C)[nH]c2c1=O` yielded a pIC50 of 5.70.

Tested on: SNU-C1
Experiment: Cytotoxicity against human SNU-C1 cells measured after 8 days
Format: functional, cell-based
Conditions: SNU-C1, 192 h
With `C/C=C/Cn1cc(-c2cc(OC)c(C(=O)N3CCOCC3)cc2OC)c2cc(C)[nH]c2c1=O` the pIC50 was 5.70.

Tested on: SKM-1
Experiment: Cytotoxicity against human SKM-1 cells measured after 8 days
Format: functional, cell-based
Conditions: SKM-1, 192 h
`C/C=C/Cn1cc(-c2cc(OC)c(C(=O)N3CCOCC3)cc2OC)c2cc(C)[nH]c2c1=O` gave a pIC50 of 5.70.

Target: T1, Bromodomain-containing protein 4
Experiment: Binding affinity to human partial length BRD4 bromodomain 2 long isoform (K333 to E460 residues) expressed in bacterial expression system by BROMOscan assay
Conditions: not given
For `C/C=C/Cn1cc(-c2cc(OC)c(C(=O)N3CCOCC3)cc2OC)c2cc(C)[nH]c2c1=O`, the pKd was under 5.00.

Tested on: ONS-76
Experiment: Cytotoxicity against human ONS-76 cells measured after 8 days
Format: functional, cell-based
Conditions: ONS-76, 192 h
Compound `C/C=C/Cn1cc(-c2cc(OC)c(C(=O)N3CCOCC3)cc2OC)c2cc(C)[nH]c2c1=O` has a pIC50 of 5.70.

Tested on: HCC4017
Experiment: Cytotoxicity against human HCC4017 cells measured after 8 days
Format: functional, cell-based
Conditions: HCC4017, 192 h
For `C/C=C/Cn1cc(-c2cc(OC)c(C(=O)N3CCOCC3)cc2OC)c2cc(C)[nH]c2c1=O`, the pIC50 was 5.70.

Tested on: not listed separately
Experiment: Cytotoxicity against human OV7 cells measured after 8 days
Format: functional, cell-based
Conditions: OV7, 192 h
`C/C=C/Cn1cc(-c2cc(OC)c(C(=O)N3CCOCC3)cc2OC)c2cc(C)[nH]c2c1=O` gave a pIC50 of 5.70.

Tested on: EVSA-T
Experiment: Cytotoxicity against human EVSA-T cells measured after 8 days
Format: functional, cell-based
Conditions: 192 h
`C/C=C/Cn1cc(-c2cc(OC)c(C(=O)N3CCOCC3)cc2OC)c2cc(C)[nH]c2c1=O` showed a pIC50 of 5.70.

Tested on: not listed separately
Experiment: Cytotoxicity against human NCI-H1339 cells measured after 8 days
Format: functional, cell-based
Conditions: NCI-H1339, 192 h
`C/C=C/Cn1cc(-c2cc(OC)c(C(=O)N3CCOCC3)cc2OC)c2cc(C)[nH]c2c1=O` showed a pIC50 of 5.70.

Target: Muscarinic acetylcholine receptor M3 (Homo sapiens) (UniProt P20309)
Sequence (P20309 whole entry, looked up): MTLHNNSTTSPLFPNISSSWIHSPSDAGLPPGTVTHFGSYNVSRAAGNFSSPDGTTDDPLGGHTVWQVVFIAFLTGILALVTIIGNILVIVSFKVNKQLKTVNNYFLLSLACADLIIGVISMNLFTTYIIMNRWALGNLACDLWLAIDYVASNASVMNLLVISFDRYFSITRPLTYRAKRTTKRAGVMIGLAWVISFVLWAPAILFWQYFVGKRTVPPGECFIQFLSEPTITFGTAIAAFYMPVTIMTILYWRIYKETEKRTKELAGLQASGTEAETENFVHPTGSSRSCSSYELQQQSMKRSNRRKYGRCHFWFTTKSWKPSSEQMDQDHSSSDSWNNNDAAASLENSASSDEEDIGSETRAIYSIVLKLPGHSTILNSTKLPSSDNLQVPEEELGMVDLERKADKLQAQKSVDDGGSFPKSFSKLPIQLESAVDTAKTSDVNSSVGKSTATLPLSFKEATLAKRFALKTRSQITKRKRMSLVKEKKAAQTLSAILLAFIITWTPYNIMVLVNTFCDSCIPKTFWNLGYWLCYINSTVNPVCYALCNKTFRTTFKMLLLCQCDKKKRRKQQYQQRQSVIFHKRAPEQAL
Experiment: Displacement of [3H]4-DAMP from human recombinant M3 receptor at 10 uM after 60 mins by scintillation counting analysis relative to control
Conditions: not given
For `C/C=C/Cn1cc(-c2cc(OC)c(C(=O)N3CCOCC3)cc2OC)c2cc(C)[nH]c2c1=O`, the Activity was 3%.
